Reference: PubChem BioAssay AID1963844 (Molecular Pharmacology Branch, DTP, NCI, 2024)

Test system: 422866-222-R5-J1-PDC complex spheroid viability
Test: Anticancer human tumor 422866-222-R5-J1-PDC patient-derived pancreatic adenocarcinoma cell line growth inhibition [POLQ]
Conditions: for IC50: curve of first compound; for viability, T/C: stronger effect = lower value
Protocol: Multicellular complex tumor spheroid response to Polymerase (POL) inhibitors (novobiocin, ART-558, RP6685) in combination with a variety of drugs and investigational agents in selected tumor cell lines
The POL inhibitors (novobiocin, ART-558, and RP6685) were evaluated both individually and in combination with standard of care and investigational anticancer small molecules within a complex spheroid model of solid tumors. . Complex spheroids include a stromal component modeled by human endothelial cells (HUVEC) and fibroblasts modeled by human mesenchymal stem cells (MSCs). The concentration ranges selected for each drug and investigational agent were based upon clinically achievable concentrations if the clinical Cmax of the agent was known.
Compounds. The drugs and investigational agents: novobiocin (NSC847541), ART-558 (NSC835418), RP-6685 (NSC848927), peposertib (NSC802822), ceralasertib (NSC780249), elimusertib (NSC800525), camonsertib (NSC841442), AZD-1390 (NSC803789), olaparib (NSC753686), talazoparib (NSC767125), rucaparib (NSC756644), sotorasib (NSC818433), MRTX-1133 (NSC836407), SN-38 (NSC673596), topotecan (NSC609699), epotoside (NSC141540), doxorubicin (NSC123127), gemcitabine (NSC613327), 5-fluorouracil (NSC19893), paclitaxel (NSC125973), vemurafenib (NSC761431), MSA-2 (NSC828583), SN-011 (NSC837082), adavosertib (NSC754352), prexasertib (NSC758257), carboplatin (NSC241240) and oxaliplatin (NSC266046), were obtained from the National Cancer Institute (NCI) Developmental Therapeutics Program Chemical Repository (21). The FDA-approved anticancer drug set is available from the Developmental Therapeutics Program at https://dtp.cancer.gov/organization/dscb/obtaining/. […] The stock solutions were prepared in dimethyl sulfoxide (DMSO, Sigma-Aldrich, St. Louis, MO, cat. D2650), except for the platinum compounds which were prepared in saline (Quality Biological, Gaithersburg, MD, cat. 114-055-101), at 800-fold the tested concentration and stored at -70 degrees C prior to their use. All drugs and investigational agents were tested over a range starting from a high concentration at or near the clinical Cmax and decreasing in half-log increments. If the clinical Cmax for an agent had not been determined, the highest concentration tested was 10 microM, except for SN-38, which was tested at a high concentration of 1 microM.
Cell Culture. All cells were maintained in an incubator at 37 degrees C and 5% CO2 with 95% humidity. The PDC lines were cultured according to standard operating procedures established by the NCI PDMR (https://pdmr.cancer.gov). Table 3 of the manuscript, lists the cell lines along with the number of the three cell types plated to form the mct-spheroids and media for tumor cell growth. After thawing, all PDC lines, except 997537-175-T-J1-PDC and 415267-285-R-J2-PDC, were cultured in Matrigel-coated flasks prepared with a working solution of 1X Ham's F-12 nutrient mix, without supplementation (Thermo Fisher Scientific, cat. 11765054), 100 U/mL penicillin-streptomycin (Thermo Fisher Scientific, cat. 15140122), and 2.5% Matrigel (Corning Inc., Corning, NY, cat. 354248) for the first three passages. The two PDC lines 997537-175-T-J1-PDC and 415267-285-R-J2-PDC were cultured on uncoated flasks. The 857933-349-R-J2-PDC line was cultured in 6C/Colon 1B media containing advanced DMEM/F-12 (Thermo Fisher Scientific, cat. 12634028), 10 mM HEPES (Thermo Fisher Scientific, cat. 15630080), 1X GlutaMAX supplement (Thermo Fisher Scientific, cat. 35050061), 0.1 mg/mL primocin (InvivoGen, San Diego, CA, cat. ant-pm-2), 10% defined fetal bovine serum, heat inactivated (HyClone Laboratories Inc., Logan, UT, cat. SH30070.03HI), 50% L-WRN conditioned media (ATCC, cat. CRL-3276), 1.25 mM N-Acetyl-L-cysteine (Sigma-Aldrich, cat. A9165), 10 mM nicotinamide (Sigma-Aldrich, cat. N0636), 1X B-27 supplement (Thermo Fisher Scientific, cat. 17504044), 1X N-2 supplement (Thermo Fisher Scientific, cat. […]

[1] = second compound 0.0316 µM, first compound 0.0316 µM
[2] = second compound 0.0316 µM, first compound 0.1 µM
[3] = second compound 0.0316 µM, first compound 0.316 µM
[4] = second compound 0.0316 µM, first compound 1 µM
[5] = second compound 0.0316 µM, first compound 3.16 µM
[6] = second compound 0.0316 µM, first compound 10 µM
[7] = second compound 0.1 µM, first compound 0.0316 µM
[8] = second compound 0.1 µM, first compound 0.1 µM
[9] = second compound 0.1 µM, first compound 0.316 µM
[10] = second compound 0.1 µM, first compound 1 µM
[11] = second compound 0.1 µM, first compound 3.16 µM
[12] = second compound 0.1 µM, first compound 10 µM
[13] = second compound 0.316 µM, first compound 0.0316 µM
[14] = second compound 0.316 µM, first compound 0.1 µM
[15] = second compound 0.316 µM, first compound 0.316 µM
[16] = second compound 0.316 µM, first compound 1 µM
[17] = second compound 0.316 µM, first compound 3.16 µM
[18] = second compound 0.316 µM, first compound 10 µM
[19] = second compound 1 µM, first compound 0.0316 µM
[20] = second compound 1 µM, first compound 0.1 µM
[21] = second compound 1 µM, first compound 0.316 µM
[22] = second compound 1 µM, first compound 1 µM
[23] = second compound 1 µM, first compound 3.16 µM
[24] = second compound 1 µM, first compound 10 µM
[25] = second compound 3.16 µM, first compound 0.0316 µM
[26] = second compound 3.16 µM, first compound 0.1 µM
[27] = second compound 3.16 µM, first compound 0.316 µM
[28] = second compound 3.16 µM, first compound 1 µM
[29] = second compound 3.16 µM, first compound 3.16 µM
[30] = second compound 3.16 µM, first compound 10 µM
[31] = second compound 10 µM, first compound 0.0316 µM
[32] = second compound 10 µM, first compound 0.1 µM
[33] = second compound 10 µM, first compound 0.316 µM
[34] = second compound 10 µM, first compound 1 µM
[35] = second compound 10 µM, first compound 3.16 µM
[36] = second compound 10 µM, first compound 10 µM
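Further: spheroids exposed to compounds for one week before readout.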
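Wherever viability, T/C is given: percent of DMSO vehicle wells luminescence so 100% = untreated viability.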

Work on CCCS(=O)(=O)Nc1ccc(F)c(C(=O)c2c[nH]c3ncc(-c4ccc(Cl)cc4)cc23)c1F + Nc1ccc(C#CCN(C(=O)Cc2ncc(C(F)(F)F)cc2C(F)(F)F)c2ccc(F)cc2)nn1 yielded an IC50 (second compound 0.0316 µM) greater than 10 µM, an IC50 (second compound 0.1 µM) greater than 10 µM and an IC50 (second compound 0.316 µM) greater than 10 µM. The IC50 (second compound 1 µM) was greater than 10 µM, the IC50 (second compound 3.16 µM) was greater than 10 µM and the IC50 (second compound 10 µM) was greater than 10 µM. The viability, T/C [1] was 101%, the viability, T/C [2] was 103% and the viability, T/C [3] was 107%. The viability, T/C [4] was 181%, the viability, T/C [5] was 197% and the viability, T/C [6] was 118%. The viability, T/C [7] was 115%, the viability, T/C [8] was 107% and the viability, T/C [9] was 115%. It also gave a viability, T/C [10] of 182%, a viability, T/C [11] of 173% and a viability, T/C [12] of 118%. The viability, T/C [13] was 105%, the viability, T/C [14] was 96.4% and the viability, T/C [15] was 113%. The viability, T/C [16] was 162%, the viability, T/C [17] was 164% and the viability, T/C [18] was 129%. The viability, T/C [19] was 103%, the viability, T/C [20] was 112% and the viability, T/C [21] was 125%. It also gave a viability, T/C [22] of 133%, a viability, T/C [23] of 193% and a viability, T/C [24] of 113%. The viability, T/C [25] was 107%, the viability, T/C [26] was 124% and the viability, T/C [27] was 138%. The viability, T/C [28] was 127%, the viability, T/C [29] was 153% and the viability, T/C [30] was 114%. The viability, T/C [31] was 125%, the viability, T/C [32] was 138% and the viability, T/C [33] was 166%. The viability, T/C [34] was 154%, the viability, T/C [35] was 166% and the viability, T/C [36] was 96.7%.
In the case of CCc1cc2c(N3CCc4c(cc(Cn5ccnc5)cc4-c4cn(C)nc4C(F)(F)F)C3=O)cc(C)nc2c(OC)n1 + Nc1ccc(C#CCN(C(=O)Cc2ncc(C(F)(F)F)cc2C(F)(F)F)c2ccc(F)cc2)nn1, the IC50 (second compound 0.0316 µM) is reported as greater than 10 µM, the IC50 (second compound 0.1 µM) is reported as greater than 10 µM and the IC50 (second compound 0.316 µM) is reported as greater than 10 µM. The IC50 (second compound 1 µM) was greater than 10 µM, the IC50 (second compound 3.16 µM) was greater than 10 µM and the IC50 (second compound 10 µM) was greater than 10 µM. For the same compound, the viability, T/C [1] was 79.3%, the viability, T/C [2] was 88.6% and the viability, T/C [3] was 96%. For the same compound, the viability, T/C [4] was 115%, the viability, T/C [5] was 103% and the viability, T/C [6] was 95.5%. For the same compound, the viability, T/C [7] was 105%, the viability, T/C [8] was 97.4% and the viability, T/C [9] was 102%. The viability, T/C [10] was 87.1%, the viability, T/C [11] was 98.7% and the viability, T/C [12] was 99.7%. The viability, T/C [13] was 99.5%, the viability, T/C [14] was 86.3% and the viability, T/C [15] was 94.8%. For the same compound, the viability, T/C [16] was 88.3%, the viability, T/C [17] was 118% and the viability, T/C [18] was 100%. The viability, T/C [19] was 95.6%, the viability, T/C [20] was 75% and the viability, T/C [21] was 87.7%. The viability, T/C [22] was 99.7%, the viability, T/C [23] was 94.9% and the viability, T/C [24] was 96.2%. It also gave a viability, T/C [25] of 81.2%, a viability, T/C [26] of 93.6% and a viability, T/C [27] of 95.2%. The viability, T/C [28] was 99.2%, the viability, T/C [29] was 122% and the viability, T/C [30] was 107%. For the same compound, the viability, T/C [31] was 102%, the viability, T/C [32] was 112% and the viability, T/C [33] was 106%. The viability, T/C [34] was 83.7%, the viability, T/C [35] was 102% and the viability, T/C [36] was 113%.
O=C(Nc1ccc(O)c(NS(=O)(=O)c2ccc(F)cc2)c1)c1ccc(-c2ccccc2)cc1 + Nc1ccc(C#CCN(C(=O)Cc2ncc(C(F)(F)F)cc2C(F)(F)F)c2ccc(F)cc2)nn1 showed an IC50 (second compound 0.0316 µM) greater than 10 µM, an IC50 (second compound 0.1 µM) greater than 10 µM and an IC50 (second compound 0.316 µM) greater than 10 µM. For the same compound, the IC50 (second compound 1 µM) was greater than 10 µM, the IC50 (second compound 3.16 µM) was greater than 10 µM and the IC50 (second compound 10 µM) was greater than 10 µM. It also gave a viability, T/C [1] of 98.8%, a viability, T/C [2] of 84.9% and a viability, T/C [3] of 81.6%. For the same compound, the viability, T/C [4] was 86.9%, the viability, T/C [5] was 83.7% and the viability, T/C [6] was 113%. The viability, T/C [7] was 105%, the viability, T/C [8] was 94.3% and the viability, T/C [9] was 97.1%. For the same compound, the viability, T/C [10] was 90.5%, the viability, T/C [11] was 99.8% and the viability, T/C [12] was 123%. For the same compound, the viability, T/C [13] was 88.7%, the viability, T/C [14] was 90% and the viability, T/C [15] was 94.2%. The viability, T/C [16] was 89.9%, the viability, T/C [17] was 97.3% and the viability, T/C [18] was 116%. For the same compound, the viability, T/C [19] was 107%, the viability, T/C [20] was 84.5% and the viability, T/C [21] was 92.6%. It also gave a viability, T/C [22] of 87.9%, a viability, T/C [23] of 88.6% and a viability, T/C [24] of 117%. It also gave a viability, T/C [25] of 107%, a viability, T/C [26] of 99% and a viability, T/C [27] of 99.6%. For the same compound, the viability, T/C [28] was 78.7%, the viability, T/C [29] was 103% and the viability, T/C [30] was 109%. For the same compound, the viability, T/C [31] was 105%, the viability, T/C [32] was 85.2% and the viability, T/C [33] was 80.8%. The viability, T/C [34] was 93.8%, the viability, T/C [35] was 101% and the viability, T/C [36] was 102%.
